Test results taken from the supplement of paper PMC11208160.
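Further: IS621 recombinase and bridge RNA in Escherichia coli cells.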

Assay: recombinant barcode read abundance after kanamycin selection (control-corrected) (log10(CPM+1)); higher = more efficient recombination; sequences stand for … in AGTGCAGAGAAAATCGGCCAGTTTTCTCTGCCTGCAGTCCGCATGCCGT…AGATTTATGCAGCGGACTGCCTTTCTCCCAAAGTGATAAACCGGACAGTATCATGGACCGGTTTTCCCGGTAATCCGTATTTGCAAGGTTGGTTTCACT; site = the 11-nt target
In short: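 Pooled E. coli screen pairing targets with IS621 bridge RNA target-binding loops. Each oligo (promoter, target, barcode, J23119-driven first 104 bridge RNA bases) was Gibson-cloned into a vector with the remaining 73 bp and T7-inducible recombinase, then co-electroporated with a donor plasmid. Two replicates each were plated on chloramphenicol/ampicillin LB agar (control) or chloramphenicol/ampicillin/kanamycin with 0.1 mM IPTG. Recombination efficiency is recombinant-junction barcode counts as CPM, averaged, control-corrected, reported as log10(CPM+1).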
For “GCTGAGGCTTGGGTTCTAACCTGTTGCTG (site TCTGAGTCTCA)”, the “recombinant barcode read abundance (log10)” value was 0.256.
With “GCTGGGTCTTGGGTTCTAACCTGTTGCCT (site GATGGGTCTAG)” the “recombinant barcode read abundance (log10)” value was 0.0435.
For “GCTGGGTCTTGGGTTCTAACCTGTTGCCT (site GCTGGGTCTAG)”, the “recombinant barcode read abundance (log10)” value was 0.814.
For “GCTTACCCTTGGGTTCTAACCTGTTGCTA (site GCTTACCCTTA)”, the “recombinant barcode read abundance (log10)” value was 0.36.
For “GCTTACCCTTGGGTTCTAACCTGTTGCTA (site TAGCTAGCTAC)”, the “recombinant barcode read abundance (log10)” value was 0.0382.
In the case of “GCTTCGGCTTGGGTTCTAACCTGTTGCCT (site GCATCGGCTAG)”, the “recombinant barcode read abundance (log10)” value is reported as 0.193.
With “GCTTCGGCTTGGGTTCTAACCTGTTGCCT (site GCCTCGGCTAG)” the “recombinant barcode read abundance (log10)” value was 0.0138.
In the case of “GCTTCGGCTTGGGTTCTAACCTGTTGCCT (site GCGTCGGCTAG)”, the “recombinant barcode read abundance (log10)” value is reported as 0.0514.
For “GCTTCGGCTTGGGTTCTAACCTGTTGCCT (site GCTTCGGCTAG)”, the “recombinant barcode read abundance (log10)” value was 0.282.
With “GCTTGAACTTGGGTTCTAACCTGTTGCTT (site GCTTGAACTAA)” the “recombinant barcode read abundance (log10)” value was 0.292.
With “GCTTGAACTTGGGTTCTAACCTGTTGCTT (site GGTTGAACTAT)” the “recombinant barcode read abundance (log10)” value was 0.0501.
For “GCTTGGCCTTGGGTTCTAACCTGTTGCCT (site CCTTGGTCTAG)”, the “recombinant barcode read abundance (log10)” value was 0.211.
In the case of “GCTTGGCCTTGGGTTCTAACCTGTTGCCT (site GCTTGGCCTAG)”, the “recombinant barcode read abundance (log10)” value is reported as 0.188.
With “GCTTGGTCTTGGGTTCTAACCTGTTGCGA (site CTAGCTCCTAA)” the “recombinant barcode read abundance (log10)” value was 0.173.
For “GCTTGGTCTTGGGTTCTAACCTGTTGCGA (site GCTTGGTCTTC)”, the “recombinant barcode read abundance (log10)” value was 1.57.
With “GGAAAGACTTGGGTTCTAACCTGTTGCCT (site GGAAAGACTAG)” the “recombinant barcode read abundance (log10)” value was 1.58.
In the case of “GGAAAGACTTGGGTTCTAACCTGTTGCCT (site GGCAAGACTAG)”, the “recombinant barcode read abundance (log10)” value is reported as 0.18.
In the case of “GGAAAGACTTGGGTTCTAACCTGTTGCCT (site GGGAAGACTAG)”, the “recombinant barcode read abundance (log10)” value is reported as 0.297.
For “GGAAAGACTTGGGTTCTAACCTGTTGCCT (site GGTAAGACTAG)”, the “recombinant barcode read abundance (log10)” value was 0.505.
With “GGAAGCTCTTGGGTTCTAACCTGTTGCTT (site GGAAGCTCTAA)” the “recombinant barcode read abundance (log10)” value was 0.591.
For “GGAAGCTCTTGGGTTCTAACCTGTTGCTT (site GTACGCTCTAA)”, the “recombinant barcode read abundance (log10)” value was 0.0116.
In the case of “GGAAGGTCTTGGGTTCTAACCTGTTGCAT (site ACGTCCACTTG)”, the “recombinant barcode read abundance (log10)” value is reported as 0.0537.
For “GGAAGGTCTTGGGTTCTAACCTGTTGCAT (site GGAAGGTCTAT)”, the “recombinant barcode read abundance (log10)” value was 1.98.
With “GGAATGACTTGGGTTCTAACCTGTTGCCT (site GAAATGACTAG)” the “recombinant barcode read abundance (log10)” value was 0.344.
With “GGAATGACTTGGGTTCTAACCTGTTGCCT (site GCAATGACTAG)” the “recombinant barcode read abundance (log10)” value was 0.726.
With “GGAATGACTTGGGTTCTAACCTGTTGCCT (site GGAATGACTAG)” the “recombinant barcode read abundance (log10)” value was 2.02.
For “GGAATGACTTGGGTTCTAACCTGTTGCCT (site GTAATGACTAG)”, the “recombinant barcode read abundance (log10)” value was 0.545.
For “GGACCATCTTGGGTTCTAACCTGTTGCCT (site GGACAATCTAG)”, the “recombinant barcode read abundance (log10)” value was 0.29.
With “GGACCATCTTGGGTTCTAACCTGTTGCCT (site GGACCATCTAG)” the “recombinant barcode read abundance (log10)” value was 0.915.
In the case of “GGACCATCTTGGGTTCTAACCTGTTGCCT (site GGACGATCTAG)”, the “recombinant barcode read abundance (log10)” value is reported as 0.146.
For “GGACCATCTTGGGTTCTAACCTGTTGCCT (site GGACTATCTAG)”, the “recombinant barcode read abundance (log10)” value was 0.276.
In the case of “GGACCCTCTTGGGTTCTAACCTGTTGCCT (site AGACCCTCTAG)”, the “recombinant barcode read abundance (log10)” value is reported as 1.09.
In the case of “GGACCCTCTTGGGTTCTAACCTGTTGCCT (site CGACCCTCTAG)”, the “recombinant barcode read abundance (log10)” value is reported as 0.406.
With “GGACCCTCTTGGGTTCTAACCTGTTGCCT (site GGACCCTCTAG)” the “recombinant barcode read abundance (log10)” value was 1.96.
For “GGACCCTCTTGGGTTCTAACCTGTTGCCT (site TGACCCTCTAG)”, the “recombinant barcode read abundance (log10)” value was 0.353.
In the case of “GGACCTCCTTGGGTTCTAACCTGTTGCAT (site GGACCTCCTAA)”, the “recombinant barcode read abundance (log10)” value is reported as 0.342.
With “GGACCTCCTTGGGTTCTAACCTGTTGCAT (site GGACCTCCTAC)” the “recombinant barcode read abundance (log10)” value was 0.805.
With “GGACCTCCTTGGGTTCTAACCTGTTGCAT (site GGACCTCCTAG)” the “recombinant barcode read abundance (log10)” value was 0.0883.
For “GGACCTCCTTGGGTTCTAACCTGTTGCAT (site GGACCTCCTAT)”, the “recombinant barcode read abundance (log10)” value was 1.96.
For “GGACCTCCTTGGGTTCTAACCTGTTGCGT (site GGACCTCCTAA)”, the “recombinant barcode read abundance (log10)” value was 0.503.
For “GGACCTCCTTGGGTTCTAACCTGTTGCGT (site GGACCTCCTAC)”, the “recombinant barcode read abundance (log10)” value was 3.05.
For “GGACCTCCTTGGGTTCTAACCTGTTGCGT (site GGACCTCCTAG)”, the “recombinant barcode read abundance (log10)” value was 0.272.
With “GGACCTCCTTGGGTTCTAACCTGTTGCGT (site GGACCTCCTAT)” the “recombinant barcode read abundance (log10)” value was 1.71.
In the case of “GGACGATCTTGGGTTCTAACCTGTTGCCT (site GGACAATCTAG)”, the “recombinant barcode read abundance (log10)” value is reported as 0.471.
For “GGACGATCTTGGGTTCTAACCTGTTGCCT (site GGACCATCTAG)”, the “recombinant barcode read abundance (log10)” value was 0.0164.
With “GGACGATCTTGGGTTCTAACCTGTTGCCT (site GGACGATCTAG)” the “recombinant barcode read abundance (log10)” value was 1.54.
In the case of “GGACGATCTTGGGTTCTAACCTGTTGCCT (site GGACTATCTAG)”, the “recombinant barcode read abundance (log10)” value is reported as 0.357.
For “GGACGCGCTTGGGTTCTAACCTGTTGCGG (site GGACGCGCTCC)”, the “recombinant barcode read abundance (log10)” value was 2.43.
For “GGACGCGCTTGGGTTCTAACCTGTTGCGG (site GGGCCCGCTCC)”, the “recombinant barcode read abundance (log10)” value was 0.075.
With “GGACGGCCTTGGGTTCTAACCTGTTGCCT (site GGACGACCTAG)” the “recombinant barcode read abundance (log10)” value was 0.523.
For “GGACGGCCTTGGGTTCTAACCTGTTGCCT (site GGACGCCCTAG)”, the “recombinant barcode read abundance (log10)” value was 0.133.
With “GGACGGCCTTGGGTTCTAACCTGTTGCCT (site GGACGGCCTAG)” the “recombinant barcode read abundance (log10)” value was 1.35.
For “GGACGGCCTTGGGTTCTAACCTGTTGCCT (site GGACGTCCTAG)”, the “recombinant barcode read abundance (log10)” value was 0.
With “GGAGAAGCTTGGGTTCTAACCTGTTGCCT (site GGAGAAGCTAG)” the “recombinant barcode read abundance (log10)” value was 2.11.
With “GGAGAAGCTTGGGTTCTAACCTGTTGCCT (site GGAGACGCTAG)” the “recombinant barcode read abundance (log10)” value was 0.569.
With “GGAGAAGCTTGGGTTCTAACCTGTTGCCT (site GGAGAGGCTAG)” the “recombinant barcode read abundance (log10)” value was 1.15.
In the case of “GGAGAAGCTTGGGTTCTAACCTGTTGCCT (site GGAGATGCTAG)”, the “recombinant barcode read abundance (log10)” value is reported as 0.158.
For “GGAGCTTCTTGGGTTCTAACCTGTTGCCT (site GGAGCTTCTAG)”, the “recombinant barcode read abundance (log10)” value was 1.33.
In the case of “GGAGCTTCTTGGGTTCTAACCTGTTGCCT (site GTACCTTCTAG)”, the “recombinant barcode read abundance (log10)” value is reported as 0.256.
